Results: ChEMBL document CHEMBL1128179, “Structure-activity study of tripeptide thrombin inhibitors using alpha-alkyl amino acids and other conformationally constrained amino acid substitutions” (J Med Chem, 1995)
Square brackets hold non-standard residues; d marks the D form. Peptide text beside a SMILES is read from it. * marks the point of attachment. Tic = O=C(O)[C@@H]1Cc2ccccc2CN1; dPhg = N[C@@H](C(=O)O)c1ccccc1; Boc = CC(C)(C)OC(=O)*

Assays:
[1] = Ratio of IC50 towards Tissue Plasminogen activator to thrombin
[2] = Ratio of IC50 towards Plasmin to thrombin
[3] = target: Tissue-type plasminogen activator (Homo sapiens, UniProt P00750); assay: In vitro Enzyme Inhibitory activity against t-PA(Tissue plasminogen activator).
Sequence of Tissue-type plasminogen activator (P00750 whole entry): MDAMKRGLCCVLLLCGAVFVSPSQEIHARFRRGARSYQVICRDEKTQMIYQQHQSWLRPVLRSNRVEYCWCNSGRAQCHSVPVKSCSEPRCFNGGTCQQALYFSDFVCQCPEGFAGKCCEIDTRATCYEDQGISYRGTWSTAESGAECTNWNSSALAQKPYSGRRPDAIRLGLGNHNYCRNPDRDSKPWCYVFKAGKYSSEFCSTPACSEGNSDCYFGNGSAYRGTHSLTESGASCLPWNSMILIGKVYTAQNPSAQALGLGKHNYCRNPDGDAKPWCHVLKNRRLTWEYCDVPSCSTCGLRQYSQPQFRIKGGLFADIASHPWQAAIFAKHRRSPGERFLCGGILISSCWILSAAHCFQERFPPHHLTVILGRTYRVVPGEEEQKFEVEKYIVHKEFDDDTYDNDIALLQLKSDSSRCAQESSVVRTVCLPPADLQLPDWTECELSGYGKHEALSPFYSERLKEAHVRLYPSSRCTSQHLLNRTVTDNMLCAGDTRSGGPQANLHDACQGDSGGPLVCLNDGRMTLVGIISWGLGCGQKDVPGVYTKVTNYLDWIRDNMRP

Prothrombin = Prothrombin (Bos taurus, UniProt P00735); assay: In vitro Enzyme Inhibitory activity measured against Thrombin
Serine protease 1 = target: T1, Serine protease 1 (Bos taurus, UniProt P00760); assay: In vitro Enzyme Inhibitory activity measured against Trypsin
T1 sequence (P00760 whole entry): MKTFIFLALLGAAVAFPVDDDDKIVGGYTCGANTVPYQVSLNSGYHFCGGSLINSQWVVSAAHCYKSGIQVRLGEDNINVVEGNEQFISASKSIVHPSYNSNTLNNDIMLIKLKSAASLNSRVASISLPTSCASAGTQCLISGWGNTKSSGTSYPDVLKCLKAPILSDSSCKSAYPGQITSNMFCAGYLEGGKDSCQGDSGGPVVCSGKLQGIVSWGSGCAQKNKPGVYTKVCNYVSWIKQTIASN

Plasminogen = Plasminogen (Homo sapiens, UniProt P00747); assay: In vitro Enzyme Inhibitory activity measured against Plasmin
Sequence of Plasminogen (P00747 97-580 limits assumed): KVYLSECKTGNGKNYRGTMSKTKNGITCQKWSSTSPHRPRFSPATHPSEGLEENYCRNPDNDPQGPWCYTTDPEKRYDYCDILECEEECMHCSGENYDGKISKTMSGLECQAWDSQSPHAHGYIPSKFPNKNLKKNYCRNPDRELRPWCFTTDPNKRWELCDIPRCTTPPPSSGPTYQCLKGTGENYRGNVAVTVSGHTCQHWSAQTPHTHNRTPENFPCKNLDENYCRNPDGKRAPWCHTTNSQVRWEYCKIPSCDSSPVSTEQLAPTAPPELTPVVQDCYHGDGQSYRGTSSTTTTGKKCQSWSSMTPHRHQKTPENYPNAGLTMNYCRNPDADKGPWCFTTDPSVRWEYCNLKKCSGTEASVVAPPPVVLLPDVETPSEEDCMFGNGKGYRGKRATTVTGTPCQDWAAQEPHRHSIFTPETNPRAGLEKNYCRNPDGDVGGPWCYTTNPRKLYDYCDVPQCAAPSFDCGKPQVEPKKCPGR
Sequence of Plasminogen (P00747 581-810 limits assumed): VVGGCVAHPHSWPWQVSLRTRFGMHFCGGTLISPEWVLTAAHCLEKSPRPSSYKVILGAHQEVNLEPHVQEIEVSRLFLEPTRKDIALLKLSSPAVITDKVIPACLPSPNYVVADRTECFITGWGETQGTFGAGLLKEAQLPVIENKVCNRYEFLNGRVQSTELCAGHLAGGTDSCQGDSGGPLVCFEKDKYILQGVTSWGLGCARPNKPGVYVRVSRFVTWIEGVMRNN

Coagulation factor X = Coagulation factor X (Bos taurus, UniProt P00743); assay: In vitro Enzyme Inhibitory activity measured against Coagulation factor X
Sequence of Coagulation factor X (P00743 41-180 limits assumed): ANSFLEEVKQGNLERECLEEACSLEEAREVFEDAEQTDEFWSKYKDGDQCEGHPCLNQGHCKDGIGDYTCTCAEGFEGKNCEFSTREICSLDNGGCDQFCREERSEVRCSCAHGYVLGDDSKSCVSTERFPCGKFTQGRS
Sequence of Coagulation factor X (P00743 234-492 limits assumed): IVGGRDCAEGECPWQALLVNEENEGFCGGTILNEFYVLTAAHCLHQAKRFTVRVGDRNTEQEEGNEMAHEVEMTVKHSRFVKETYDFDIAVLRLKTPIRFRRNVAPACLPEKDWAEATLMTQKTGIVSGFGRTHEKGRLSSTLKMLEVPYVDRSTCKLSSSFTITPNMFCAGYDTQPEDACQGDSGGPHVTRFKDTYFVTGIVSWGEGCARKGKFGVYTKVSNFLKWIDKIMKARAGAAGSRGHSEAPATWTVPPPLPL

Row | Selectivity [1] | Selectivity [2] | IC50 [3] | IC50 (Prothrombin) | IC50 (Serine protease 1) | IC50 (Plasminogen) | IC50 (Coagulation factor X) | Compound
1 | > 50000 | 38 | – | – | – | – | – | CC(C)(C)OC(=O)NC(Cc1ccccc1)C(=O)N1C(C(=O)N[C@H](C=O)CCCN=C(N)N)CCC1(C)C (stereo in doubt) [listing 1 of 3 here]
2 | 5500 | 180 | 120 µM | 0.022 µM | 0.015 µM | 3.9 µM | 0.89 µM | CC(C)(C)OC(=O)N[C@@](C)(C(=O)N1CC[C@H]1C(=O)N[C@H](C=O)CCCN=C(N)N)c1ccccc1
3 | 30 | 5 | – | – | – | – | – | CC(C)(C)OC(=O)N[C@@H](Cc1ccccc1)C(=O)N1CCCC[C@H]1C(=O)N[C@H](C=O)CCCN=C(N)N
4 | – | – | – | 0.088 µM | – | – | – | CC(C)(C)OC(=O)NC(Cc1ccccc1)C(=O)N1CSCC1C(=O)N[C@H](C=O)CCCN=C(N)N (stereo in doubt) [listing 1 of 3 here]
5 | – | – | 23 µM | – | 0.0088 µM | 0.34 µM | 0.86 µM | CC(C)(C)OC(=O)NC(Cc1ccccc1)C(=O)N1CSCC1C(=O)N[C@H](C=O)CCCN=C(N)N (stereo in doubt) [listing 2 of 3 here]
6 | – | – | – | 0.29 µM | – | – | – | CC(C)(C)OC(=O)NC(Cc1ccccc1)C(=O)N1C(C(=O)N[C@H](C=O)CCCN=C(N)N)CCC1(C)C (stereo in doubt) [listing 2 of 3 here]
7 | – | – | 6.6 µM | – | 0.011 µM | 0.15 µM | 0.27 µM | CC(C)(C)OC(=O)N[C@@H](C(=O)N1CC[C@H]1C(=O)N[C@H](C=O)CCCN=C(N)N)c1ccccc1
8 | > 50000 | 700 | > 30000 µM | 0.064 µM | 0.18 µM | 45 µM | 190 µM | C[C@](NC(=O)C(F)(F)F)(C(=O)N1CCC[C@H]1C(=O)N[C@H](C=O)CCCN=C(N)N)c1ccccc1
9 | – | – | – | – | 0.0052 µM | 4.3 µM | 32 µM | CC[C@](NC(=O)C(F)(F)F)(C(=O)N1CC[C@H]1C(=O)N[C@H](C=O)CCCN=C(N)N)c1ccccc1
10 | 11000 | 510 | 130 µM | 0.012 µM | 0.0096 µM | 6.1 µM | 98 µM | C[C@](NC(=O)C(F)(F)F)(C(=O)N1CC[C@H]1C(=O)N[C@H](C=O)CCCN=C(N)N)c1ccccc1
11 | > 30000 | 850 | > 30000 µM | 1 µM | 240 µM | 850 µM | 1800 µM | CN[C@@H](Cc1ccccc1)C(=O)N1CCC[C@H]1C(=O)N[C@](C)(C=O)CCCN=C(N)N
12 | – | – | 21 µM | 0.0089 µM | 0.013 µM | 0.67 µM | 7.6 µM | CN[C@H](Cc1ccccc1)C(=O)N1CCC[C@H]1C(=O)N[C@H](C=O)CCCN=C(N)N
13 | 2400 | 80 | – | – | – | – | – | CN[C@H](Cc1ccccc1)C(=O)N1CCC[C@H]1C(=O)N[C@H](C=O)CCCNC(=N)N
14 | – | – | > 30000 µM | – | 0.17 µM | 11 µM | 18 µM | CC(C)(C)OC(=O)NC(Cc1ccccc1)C(=O)N1C(C(=O)N[C@H](C=O)CCCN=C(N)N)CCC1(C)C (stereo in doubt) [listing 3 of 3 here]
15 | 260 | 4 | – | – | – | – | – | CC(C)(C)OC(=O)NC(Cc1ccccc1)C(=O)N1CSCC1C(=O)N[C@H](C=O)CCCN=C(N)N (stereo in doubt) [listing 3 of 3 here]
16 | 13000 | 400 | – | – | – | – | – | CC(=O)N[C@@](C)(C(=O)N1CC[C@H]1C(=O)N[C@H](C=O)CCCN=C(N)N)c1ccccc1
17 | – | – | 48 µM | 1.7 µM | 0.72 µM | 8.1 µM | 32 µM | CC(C)(C)OC(=O)N[C@@H](Cc1ccccc1)C(=O)N1CCCC[C@H]1C(=O)N[C@H](C=O)CCCNC(=N)N
18 | – | – | 250 µM | 0.019 µM | 0.011 µM | 7.5 µM | 86 µM | CC(=O)N[C@@](C)(C(=O)N1CC[C@H]1C(=O)N[C@H](C=O)CCCNC(=N)N)c1ccccc1
19 | 650 | 5 | 30 µM | 0.046 µM | 0.0091 µM | 0.23 µM | 3.3 µM | N=C(N)NCCC[C@@H](C=O)NC(=O)[C@@H]1CCCN1C(=O)[C@@H]1C[C@@H]2CCCC[C@@H]2CN1
20 | – | – | 0.9 µM | – | 0.0097 µM | 0.36 µM | 1.3 µM | CC(C)(C)OC(=O)N[C@H](Cc1ccccc1)C(=O)N1CC[C@H]1C(=O)N[C@H](C=O)CCCNC(=N)N

Row | Compound | Selectivity [1] | Selectivity [2] | IC50 [3] | IC50 (Prothrombin) | IC50 (Serine protease 1) | IC50 (Plasminogen) | IC50 (Coagulation factor X)
21 | N=C(N)NCCC[C@@H](C=O)NC(=O)[C@@H]1CCCN1C(=O)[C@@H]1Cc2ccccc2CN1 (H-[Tic]-Pro-Arg-aldehyde) | – | – | 430 µM | 0.019 µM | 0.023 µM | – | 0.64 µM
22 | CC(C)(C)OC(=O)N[C@@H](C(=O)N1CCC[C@H]1C(=O)N[C@H](C=O)CCCN=C(N)N)c1ccccc1 (Boc-[dPhg]-Pro-Arg-aldehyde) | 540 | 6 | 8.7 µM | 0.016 µM | 0.0098 µM | – | 0.26 µM
23 | CC(C)(C)OC(=O)NC(Cc1ccccc1)C(=O)N1CC[C@H]1C(=O)N[C@@H](CCCN=C(N)N)C(=O)O (stereo in doubt) | 50 | 20 | – | 0.018 µM | – | – | –
24 | N=C(N)NCCC[C@@H](C=O)NC(=O)[C@@H]1CCCN1C(=O)[C@@H]1NCC[C@@H]2CCCC[C@@H]21 | 1800 | 40 | 34 µM | 0.019 µM | 0.053 µM | 0.71 µM | 0.55 µM
25 | CC(C)(C)OC(=O)N[C@H](Cc1ccccc1)C(=O)N1CCC[C@H]1C(=O)N[C@H](C=O)CCCN=C(N)N | 20 | 4 | 0.95 µM | 0.045 µM | 0.014 µM | – | 1.6 µM
